According to US6482990B1, “Prostaglandin E analogues” (Taisho Pharmaceutical Co., Ltd., priority 1999, dated 2002):

Tested on: human vascular smooth muscle cells
Experiment: DNA synthesis inhibition activity (3H-thymidine intake) in human vascular smooth muscle cells
Format: cell-based
Settings: for inhibiting activity on the growth of human vascular smooth muscle cells: conclusion in words from Table 2; for IC50: vascular cells derived from normal human aorta, 24 hours culture with 3H-thymidine, test compound as ethanol solution, compared with vehicle-treated control
Description: Determination of DNA synthesis inhibition activity of PGE1 analogs to human vascular smooth muscle cells
On a 24 well-plate (manufactured by Corning Co.), 1×10^4 cells/well of quintic culture cells of vascular cells derived from normal human aorta (produced by Kurabo Co.) were inoculated and cultured for 2 days. The medium was exchanged from the growth medium (SG2: produced by Kurabo Co.) to the basal medium (SB2: produced by Kurabo Co.), and cultured for 24 hours, to which was added the growth medium (SG2) containing an ethanol solution of the test compound. ^3H-thymidine (produced by Daiichi Chemicals Co.) was added in an amount of 0.01 mci/well and, after culturing for 24 hours, the cultured supernatant was removed by suction, followed by washing with a phosphate buffer solution (PBS).
5% Trichloroacetic acid (TCA) was added and, after allowing to stand at 4° C. for 20 minutes, the mixture was washed once with TCA. The mixture was washed with PBS, and dissolved in 0.5 N KOH. Intake of ^3H-thymidine was determined using 20 μl of KOH dissolving the cells which incorporated ^3H-thymidine in the nucleus by means of a liquid scintillation counter (manufactured by Hewlett-Packard Co.).

SMILES | inhibiting activity on the growth of human vascular smooth muscle cells | IC50 [nM]
O=C1CC(O)C(C=CC(O)CCc2ccccc2)C1CCCc1ccc(C(F)(F)F)cc1 (centres unmarked) [Compound 18, 2-Decarboxy-2,3,4,18,19,20-hexanor-5-(4-trifluoromethylphenyl)-17-phenyl-PGE1] | high inhibiting activity | 660
COC(=O)/C=C/CCCCC1C(=O)CC(O)C1C#CC(O)CCc1ccccc1 (centres unmarked) [Comparative Compound, (2E)-18,19,20-Trinor-17-phenyl-2,3,13,14-tetradehydro-PGE1 methyl ester, reference compound] | – | 4360
Cc1ccc(CCCC2C(=O)CC(O)C2C=CC(O)CCc2ccccc2)cc1 (centres unmarked) [Compound 29, 2-Decarboxy-2,3,4,18,19,20-hexanor-5-(4-methylphenyl)-17-phenyl-PGE1] | high inhibiting activity | 730
